In patent US9359308B2, “Pyrazine kinase inhibitors” (Portola Pharmaceuticals, Inc., priority 2011, dated 2016):

Biological target: T1, full length active recombinant SYK enzyme (Homo sapiens, UniProt P43405)
T1 construct: full length active recombinant SYK enzyme (Millipore, Calif.); purchased Millipore
Assay: Inhibition of Syk tyrosine phosphorylation activity (LANCE TR-FRET kinase assay)
Format: biochemical
Details: activity in the Syk assays, class symbols
Summary of the method: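 IC50 was derived by non-linear regression of TR-FRET signal (Eu-W1024-PY100 donor, streptavidin-APC acceptor) read 1 h after EDTA quench. The kinase step ran 1 h at room temperature with 1 nM full-length SYK, 550 nM biotinylated DEEDYESP substrate and 100 μM ATP in Tris pH 7.5/MgCl2/DTT at 3% final DMSO.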

SMILES | IC50 [nM]
CC[C@@H](Nc1cnc(C(N)=O)c(Nc2cnc3ccc(F)cc3c2)n1)C(N)=O [Example 232, (R)-5-(1-amino-1-oxobutan-2-ylamino)-3-(6-fluoroquinolin-3-ylamino)pyrazine-2-carboxamide] | 1 to 10
Cc1cc(C)cc(Nc2nc(N[C@@H](C(N)=O)C(C)C)cnc2C(N)=O)c1 [Example 163, (R)-5-(1-amino-3-methyl-1-oxobutan-2-ylamino)-3-(3,5-dimethylphenylamino)pyrazine-2-carboxamide] | 10 to 100
CC[C@@H](Nc1cnc(C(N)=O)c(Nc2ccc3c(c2)CCC(=O)N3)n1)C(N)=O [Example 30, (R)-5-(1-amino-1-oxobutan-2-ylamino)-3-(2-oxo-1,2,3,4-tetrahydroquinolin-6-ylamino)pyrazine-2-carboxamide] | 1 to 10
CC(C)[C@@H](Nc1cnc(C(N)=O)c(Nc2cccc(OC(F)(F)F)c2)n1)C(N)=O [Example 147, (R)-5-(1-amino-3-methyl-1-oxobutan-2-ylamino)-3-(3-(trifluoromethoxy)phenylamino)pyrazine-2-carboxamide] | 100 to 1000
NC(=O)c1ncc(N[C@@H]2CCCC[C@@H]2N)nc1Nc1cnc2c(F)cccc2c1 [Example 202, 5-((1R,2S)-2-aminocyclohexylamino)-3-(8-fluoroquinolin-3-ylamino)pyrazine-2-carboxamide] | 1 to 10
CC[C@@H](Nc1cnc(C(N)=O)c(Nc2ccc(C(=O)N3CCC3)nc2)n1)C(N)=O [Example 300, (R)-5-(1-amino-1-oxobutan-2-ylamino)-3-(6-(azetidine-1-carbonyl)pyridin-3-ylamino)pyrazine-2-carboxamide] | 10 to 100
NC(=O)c1ncc(N[C@@H]2CCOC[C@@H]2N)nc1Nc1cnc2ccccc2c1 [Example 79, 5-((3R,4R)-3-aminotetrahydro-2H-pyran-4-ylamino)-3-(quinolin-3-ylamino)pyrazine-2-carboxamide] | 1 to 10
Cc1cc(Nc2nc(N[C@@H]3CCCC[C@@H]3N)cnc2C(N)=O)sn1 [Example 328, 5-((1R,2S)-2-aminocyclohexylamino)-3-(3-methylisothiazol-5-ylamino)pyrazine-2-carboxamide] | < 1
CC[C@@H](Nc1cnc(C(N)=O)c(Nc2ccnc(OC)c2)n1)C(N)=O [Example 302, (R)-5-(1-amino-1-oxobutan-2-ylamino)-3-(2-methoxypyridin-4-ylamino)pyrazine-2-carboxamide] | 10 to 100
CC[C@@H](Nc1cnc(C(N)=O)c(Nc2ccc3nccn3c2)n1)C(N)=O [Example 426, (R)-5-((1-amino-1-oxobutan-2-yl)amino)-3-(imidazo[1,2-a]pyridin-6-ylamino)pyrazine-2-carboxamide] | 1 to 10
CCc1ccc(Nc2nc(N[C@@H]3CCCC[C@@H]3N)cnc2C(N)=O)cn1 [Example 350, 5-((1R,2S)-2-aminocyclohexylamino)-3-(6-ethylpyridin-3-ylamino)pyrazine-2-carboxamide] | 1 to 10
CC[C@@H](Nc1cnc(C(N)=O)c(Nc2ccnc3ccccc23)n1)C(N)=O [Example 370, (R)-5-(1-amino-1-oxobutan-2-ylamino)-3-(quinolin-4-ylamino)pyrazine-2-carboxamide] | 1 to 10
CC(=O)N1CCN(c2ccc(Nc3cnc(C(N)=O)c(NC4CC4)n3)cc2)CC1 [Example 60, 5-(4-(4-acetylpiperazin-1-yl)phenylamino)-3-(cyclopropylamino)pyrazine-2-carboxamide] | > 1000
NC(=O)c1ncc(N[C@@H]2CCNC2)nc1Nc1csc2ncccc12 [Example 106, (R)-5-(pyrrolidin-3-ylamino)-3-(thieno[2,3-b]pyridin-3-ylamino)pyrazine-2-carboxamide] | 1 to 10
CC[C@@H](Nc1cnc(C(N)=O)c(Nc2cc(F)c3ncccc3c2)n1)C(N)=O [Example 208, (R)-5-(1-amino-1-oxobutan-2-ylamino)-3-(8-fluoroquinolin-6-ylamino)pyrazine-2-carboxamide] | 1 to 10
NC(=O)c1ncc(N[C@@H]2CCCC[C@@H]2N)nc1Nc1ccn2ccnc2c1 [Example 427, 5-(((1R,2S)-2-aminocyclohexyl)amino)-3-(imidazo[1,2-a]pyridin-7-ylamino)pyrazine-2-carboxamide] | 1 to 10
NC(=O)c1ncc(N[C@@H]2CCCC[C@@H]2N)nc1Nc1cncc(-c2ncccn2)c1 [Example 422] | 1 to 10
Cc1cc(Nc2nc(N[C@H](CC3CC3)C(N)=O)cnc2C(N)=O)sn1 [Example 374, (R)-5-(1-amino-3-cyclopropyl-1-oxopropan-2-ylamino)-3-(3-methylisothiazol-5-ylamino)pyrazine-2-carboxamide] | 1 to 10
CN1C(=O)CCc2cc(Nc3nc(N[C@@H]4CCCC[C@@H]4N)cnc3C(N)=O)ccc21 [Example 90, 5-((1R,2S)-2-aminocyclohexylamino)-3-(1-methyl-2-oxo-1,2,3,4-tetrahydroquinolin-6-ylamino)pyrazine-2-carboxamide] | 1 to 10

SMILES | IC50 [nM]
NC(=O)c1ncc(NC[C@@H](N)CC(F)F)nc1Nc1cccc(-c2ncccn2)c1 [Example 176, (S)-5-(2-amino-4,4-difluorobutylamino)-3-(3-(pyrimidin-2-yl)phenylamino)pyrazine-2-carboxamide] | 10 to 100
Cc1ccc(Nc2nc(N[C@H](CC(C)C)C(N)=O)cnc2C(N)=O)cc1 [Example 69, (R)-5-(1-amino-4-methyl-1-oxopentan-2-ylamino)-3-(p-tolylamino)pyrazine-2-carboxamide] | 10 to 100
NC(=O)c1ncc(N[C@@H]2CCNC2)nc1Nc1cccc(-n2nccn2)c1 [Example 105, (R)-3-((3-(2H-1,2,3-triazol-2-yl)phenyl)amino)-5-(pyrrolidin-3-ylamino)pyrazine-2-carboxamide] | 1 to 10
CC[C@@H](Nc1cnc(C(N)=O)c(Nc2snc(C)c2Br)n1)C(N)=O [Example 132, (R)-5-((1-amino-1-oxobutan-2-yl)amino)-3-((4-bromo-3-methylisothiazol-5-yl)amino)pyrazine-2-carboxamide] | 10 to 100
NC(=O)c1ncc(N[C@@H]2CCCC[C@@H]2N)nc1Nc1cnn(C2CC2)c1 [Example 258, 5-((1R,2S)-2-aminocyclohexylamino)-3-(1-cyclopropyl-1H-pyrazol-4-ylamino)pyrazine-2-carboxamide] | 10 to 100
Cc1nsc(Nc2nc(N[C@@H]3CCCC[C@@H]3N)cnc2C(N)=O)c1-c1cccnc1 [Example 121] | 100 to 1000
CC[C@@H](Nc1cnc(C(N)=O)c(Nc2cccc(-c3ncco3)c2)n1)C(N)=O [Example 450, (R)-5-((1-amino-1-oxobutan-2-yl)amino)-3-((3-(oxazol-2-yl)phenyl)amino)pyrazine-2-carboxamide] | 10 to 100
CC[C@@H](Nc1cnc(C(N)=O)c(Nc2ccnc3ncccc23)n1)C(N)=O [Example 386, (R)-3-(1,8-naphthyridin-4-ylamino)-5-(1-amino-1-oxobutan-2-ylamino)pyrazine-2-carboxamide] | 1 to 10
NC(=O)c1ncc(N[C@@H]2CCCC(F)(F)[C@@H]2N)nc1Nc1ccc(-c2ccno2)cc1 [Example 18, 5-((1R,2R)-2-amino-3,3-difluorocyclohexylamino)-3-(4-(isoxazol-5-yl)phenylamino)pyrazine-2-carboxamide] | 10 to 100
NC(=O)c1ncc(N[C@@H]2CCCC[C@@H]2N)nc1Nc1cnn(-c2ccccc2)c1 [Example 262, 5-((1R,2S)-2-aminocyclohexylamino)-3-(1-phenyl-1H-pyrazol-4-ylamino)pyrazine-2-carboxamide] | < 1
Cc1cc(Nc2nc(N[C@@H]3CCOC[C@@H]3N)cnc2C(N)=O)sn1 [Example 408, 5-((3R,4R)-3-aminotetrahydro-2H-pyran-4-ylamino)-3-(3-methylisothiazol-5-ylamino)pyrazine-2-carboxamide] | 1 to 10
CN(C)C(=O)c1ccc(Nc2nc(N[C@@H]3CCCC[C@@H]3N)cnc2C(N)=O)cn1 [Example 278, 5-((1R,2S)-2-aminocyclohexylamino)-3-(6-(dimethylcarbamoyl)pyridin-3-ylamino)pyrazine-2-carboxamide] | 100 to 1000
NC(=O)c1ncc(N[C@@H]2CCNC2)nc1Nc1cccnc1 [Example 113, (R)-3-(pyridin-3-ylamino)-5-(pyrrolidin-3-ylamino)pyrazine-2-carboxamide] | 10 to 100
Cc1cc(Nc2nc(N[C@H](Cc3c[nH]c4ccccc34)C(N)=O)cnc2C(N)=O)sn1 [Example 389, (R)-5-(1-amino-3-(1H-indol-3-yl)-1-oxopropan-2-ylamino)-3-(3-methylisothiazol-5-ylamino)pyrazine-2-carboxamide] | 1 to 10
NC(=O)c1ncc(N[C@@H](C(N)=O)c2ccccc2)nc1Nc1ccc2ncccc2c1 [Example 33, (R)-5-(2-amino-2-oxo-1-phenylethylamino)-3-(quinolin-6-ylamino)pyrazine-2-carboxamide] | 1 to 10
CC[C@@H](Nc1cnc(C(N)=O)c(Nc2ccnc(C3CC3)c2)n1)C(N)=O [Example 342, (R)-5-(1-amino-1-oxobutan-2-ylamino)-3-(2-cyclopropylpyridin-4-ylamino)pyrazine-2-carboxamide] | < 1
CC[C@@H](Nc1cnc(C(N)=O)c(Nc2cc(C)nc(C)c2)n1)C(N)=O [Example 179, (R)-5-(1-amino-1-oxobutan-2-ylamino)-3-(2,6-dimethylpyridin-4-ylamino)pyrazine-2-carboxamide] | 10 to 100
NC(=O)c1ncc(N[C@@H]2CCOC[C@@H]2N)nc1Nc1cccc(-c2ncccn2)c1 [Example 82, 5-((3R,4R)-3-aminotetrahydro-2H-pyran-4-ylamino)-3-(3-(pyrimidin-2-yl)phenylamino)pyrazine-2-carboxamide] | 1 to 10
CC[C@@H](Nc1cnc(C(N)=O)c(Nc2ccc3c(ccn3C)c2)n1)C(N)=O [Example 393, (R)-5-(1-amino-1-oxobutan-2-ylamino)-3-(1-methyl-1H-indol-5-ylamino)pyrazine-2-carboxamide] | 1 to 10
